In BindingDB's records for doi:10.1016/j.bmc.2018.06.012 (Astellas Pharma, 2018):

assay: Inhibition of PI3Kdelta in Balb/c mouse splenocytes-derived B cells assessed as reduction in anti-IgM antibody-stimulated B cell proliferation after 2 days alamar blue assay

| SMILES | IC50 |
| --- | --- |
| COc1ncc(-c2cc(O[C@@H]3CCN(C(=O)C4CCOCC4)C3)c3cnn(C)c3n2)cc1NS(C)(=O)=O | 2.6 nM |
| COc1ncc(-c2cc(O[C@@H]3CCN(Cc4c(C)nn(C)c4C)C3)c3cnn(C)c3n2)cc1NS(C)(=O)=O | 2.1 nM |
| COc1ncc(-c2cc(OC[C@@H]3CCCN(C(=O)C4CCN(C(C)=O)CC4)C3)c3cnn(C)c3n2)cc1NS(C)(=O)=O | 4.3 nM |
| COc1ncc(-c2cc(OC3CN(C(=O)C4CCOCC4)C3)c3cnn(C)c3n2)cc1NS(C)(=O)=O | 20 nM |
| COc1ncc(-c2cc(OC[C@@H]3CCCN(Cc4cn(C)nc4C)C3)c3cnn(C)c3n2)cc1NS(C)(=O)=O | 4.8 nM |
| COc1ncc(-c2cc(OC[C@@H]3CCCN(C(=O)CC4CCOC4)C3)c3cnn(C)c3n2)cc1NS(C)(=O)=O (some centres not stated) | 2.9 nM |
| COc1ncc(-c2cc(OC[C@H]3CCCN(C(=O)C4CCOCC4)C3)c3cnn(C)c3n2)cc1NS(C)(=O)=O | 7.8 nM |

Compounds with a lower IC50, results first:

| IC50 | SMILES |
| --- | --- |
| 0.41 nM | COc1ncc(-c2cc(OC[C@@H]3CCCN(CCC4CCOCC4)C3)c3cnn(C)c3n2)cc1NS(C)(=O)=O |
| 1.5 nM | COc1ncc(-c2cc(OC[C@@H]3CCCN(Cc4c(C)nn(C)c4C)C3)c3cnn(C)c3n2)cc1NS(C)(=O)=O |
| 1.5 nM | COc1ncc(-c2cc(OC[C@@H]3CCCN(CC4(C)COC4)C3)c3cnn(C)c3n2)cc1NS(C)(=O)=O |
| 1.4 nM | COc1ncc(-c2cc(OC[C@@H]3CCCN(C(=O)C4CCOCC4)C3)c3cnn(C)c3n2)cc1NS(C)(=O)=O |
| 0.29 nM | COc1ncc(-c2cc(OC[C@@H]3CCCN(CC4CCOCC4)C3)c3cnn(C)c3n2)cc1NS(C)(=O)=O |
